Results from patent publication US10202580B2, “Adult oligodendrocyte-type 2 astrocyte progenitor cell production method” (Japan Science and Technology Agency, priority 2014, dated 2019).

Tested on: proliferating OPC
Test: Number of cell divisions per colony in TH- or RA-containing medium, oxygen 1.5% by volume (Example 3)
Assay type: cell-based, rat
Settings: RA 1 ng/mL; 1.5% O2; 12 days
Experimental: In addition, unless specifically indicated otherwise, the proliferating OPC used in the following examples were isolated from the optic nerves of 7-day-old rats (P7) in accordance with the immunopanning method of Barres, et al. (Barres, et al., Cell, 1992, Vol. 70, p. 31-46), and the purity thereof (percentage of proliferating OPC relative to all cells) was 99.9% or more.
Proliferating OPC were cultured in medium to which was added thyroid hormone or medium to which was added retinoic acid in an environment having an oxygen concentration of 1.5% by volume followed by investigating the effect of retinoic acid […] on the proliferating OPC.
Six glass bottom culture dishes having a diameter of 12 mm and-coated with PDL were prepared by seeding with 300 proliferating OPC per culture disk, followed by culturing for 12 days at 37° C. in an environment having an oxygen concentration of 1.5% by volume and carbon dioxide concentration of 5% by volume. […]
Following completion of culturing, the numbers of cells that formed colonies were respectively counted and the number of cell divisions was determined for each colony. […]

CC1=C(/C=C/C(C)=C/C=C/C(C)=C/C(=O)O)C(C)(C)CCC1 [RA, all-trans retinoic acid]
effect on proliferating OPC in a low oxygen environment: able to interrupt proliferation of proliferating OPC and induce differentiation to adult OPC
